Test system: 521955-158-R2-J5-PDC complex spheroids, viability
Assay: Anticancer human tumor 521955-158-R2-J5-PDC patient-derived pancreatic carcinoma cell line growth inhibition [RAS]
Settings: for IC50: curve of first compound; for viability, T/C: stronger effect = lower value; active = viability on the fitted dose curve at most 10% of control; inactive = the rest
Procedure, shortened: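 Agents were tested in combination matrices in half-log decrements from a top concentration at or near clinical Cmax (10 microM if undetermined). Targets were multi-cell spheroids of tumour lines plus HUVEC and MSC stromal cells.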
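Also: compound exposure lasted seven days before the viability read.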
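For viability, T/C in this document: spheroids also contain HUVEC endothelial cells and mesenchymal stem cells as stroma.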

CC(=O)OC12COC1CC(O)C1(C)C(=O)C(O)C3=C(C)C(OC(=O)C(O)C(NC(=O)OC(C)(C)C)c4ccccc4)CC(O)(C(OC(=O)c4ccccc4)C21)C3(C)C (centres undefined) + C#Cc1c(F)ccc2cc(O)cc(-c3ncc4c(N5CC6CCC(C5)N6)nc(OCC56CCCN5CC(F)C6)nc4c3F)c12
inactive: viability, T/C (second compound 0.0316 µM, first compound 0.0316 µM) 32.5% | viability, T/C (second compound 0.0316 µM, first compound 0.1 µM) 35.9% | viability, T/C (second compound 0.0316 µM, first compound 0.316 µM) 32.6% | viability, T/C (second compound 0.0316 µM, first compound 1 µM) 30.2% | viability, T/C (second compound 0.0316 µM, first compound 3.16 µM) 37.5% | viability, T/C (second compound 0.0316 µM, first compound 10 µM) 47.2% | viability, T/C (second compound 0.1 µM, first compound 0.0316 µM) 33.3% | viability, T/C (second compound 0.1 µM, first compound 0.1 µM) 39.6% | viability, T/C (second compound 0.1 µM, first compound 0.316 µM) 35.2% | viability, T/C (second compound 0.1 µM, first compound 1 µM) 37.7% | viability, T/C (second compound 0.1 µM, first compound 3.16 µM) 35.6% | viability, T/C (second compound 0.1 µM, first compound 10 µM) 40.4% | viability, T/C (second compound 0.316 µM, first compound 0.0316 µM) 33.2% | viability, T/C (second compound 0.316 µM, first compound 0.1 µM) 31.7% | viability, T/C (second compound 0.316 µM, first compound 0.316 µM) 28.6% | viability, T/C (second compound 0.316 µM, first compound 1 µM) 30.9% | viability, T/C (second compound 0.316 µM, first compound 3.16 µM) 37% | viability, T/C (second compound 0.316 µM, first compound 10 µM) 38.7% | viability, T/C (second compound 1 µM, first compound 0.0316 µM) 21.7% | viability, T/C (second compound 1 µM, first compound 0.1 µM) 34.3% | viability, T/C (second compound 1 µM, first compound 0.316 µM) 32.6% | viability, T/C (second compound 1 µM, first compound 1 µM) 29.4% | viability, T/C (second compound 1 µM, first compound 3.16 µM) 51.5% | viability, T/C (second compound 1 µM, first compound 10 µM) 40.5% | viability, T/C (second compound 3.16 µM, first compound 0.0316 µM) 27.4% | viability, T/C (second compound 3.16 µM, first compound 0.1 µM) 33.3% | viability, T/C (second compound 3.16 µM, first compound 0.316 µM) 30.8% | viability, T/C (second compound 3.16 µM, first compound 1 µM) 33.4% | viability, T/C (second compound 3.16 µM, first compound 3.16 µM) 31.1% | viability, T/C (second compound 3.16 µM, first compound 10 µM) 33% | viability, T/C (second compound 10 µM, first compound 0.0316 µM) 24.8% | viability, T/C (second compound 10 µM, first compound 0.1 µM) 34.1% | viability, T/C (second compound 10 µM, first compound 0.316 µM) 28.3% | viability, T/C (second compound 10 µM, first compound 1 µM) 28.7% | viability, T/C (second compound 10 µM, first compound 3.16 µM) 32.1% | viability, T/C (second compound 10 µM, first compound 10 µM) 25.1%
< 31.6 nM: IC50 (second compound 0.0316 µM) | IC50 (second compound 0.1 µM) | IC50 (second compound 0.316 µM) | IC50 (second compound 1 µM) | IC50 (second compound 3.16 µM) | IC50 (second compound 10 µM)

O=C(c1ccc(F)c(F)c1Nc1ccc(I)cc1F)N1CC(O)([C@@H]2CCCCN2)C1 + CCn1c(-c2cccnc2C(C)OC)c2c3cc(ccc31)N1CCOC(CC(NC(=O)C(C(C)C)N(C)C(=O)C3(F)CCN(C(=O)C#CC(C)(C)N(C)C)CC3)C(=O)N3CCCC(N3)C(=O)OCC(C)(C)C2)C1
inactive: viability, T/C (second compound 0.000949 µM, first compound 0.00316 µM) 83% | viability, T/C (second compound 0.000949 µM, first compound 0.01 µM) 53.3% | viability, T/C (second compound 0.000949 µM, first compound 0.0316 µM) 43.4% | viability, T/C (second compound 0.000949 µM, first compound 0.1 µM) 36.1% | viability, T/C (second compound 0.000949 µM, first compound 0.316 µM) 32.2% | viability, T/C (second compound 0.000949 µM, first compound 1 µM) 22% | viability, T/C (second compound 0.003 µM, first compound 0.00316 µM) 77.6% | viability, T/C (second compound 0.003 µM, first compound 0.01 µM) 62.5% | viability, T/C (second compound 0.003 µM, first compound 0.0316 µM) 45.2% | viability, T/C (second compound 0.003 µM, first compound 0.1 µM) 36.1% | viability, T/C (second compound 0.003 µM, first compound 0.316 µM) 33% | viability, T/C (second compound 0.003 µM, first compound 1 µM) 18.6% | viability, T/C (second compound 0.00949 µM, first compound 0.00316 µM) 92.2% | viability, T/C (second compound 0.00949 µM, first compound 0.01 µM) 60.9% | viability, T/C (second compound 0.00949 µM, first compound 0.0316 µM) 58.5% | viability, T/C (second compound 0.00949 µM, first compound 0.1 µM) 42.2% | viability, T/C (second compound 0.00949 µM, first compound 0.316 µM) 28.3% | viability, T/C (second compound 0.00949 µM, first compound 1 µM) 24.2% | viability, T/C (second compound 0.03 µM, first compound 0.00316 µM) 80% | viability, T/C (second compound 0.03 µM, first compound 0.01 µM) 59.6% | viability, T/C (second compound 0.03 µM, first compound 0.0316 µM) 51.6% | viability, T/C (second compound 0.03 µM, first compound 0.1 µM) 39.2% | viability, T/C (second compound 0.03 µM, first compound 0.316 µM) 29% | viability, T/C (second compound 0.03 µM, first compound 1 µM) 22.2% | viability, T/C (second compound 0.0949 µM, first compound 0.00316 µM) 64.2% | viability, T/C (second compound 0.0949 µM, first compound 0.01 µM) 56.8% | viability, T/C (second compound 0.0949 µM, first compound 0.0316 µM) 43.2% | viability, T/C (second compound 0.0949 µM, first compound 0.1 µM) 36.4% | viability, T/C (second compound 0.0949 µM, first compound 0.316 µM) 32.4% | viability, T/C (second compound 0.0949 µM, first compound 1 µM) 23.9% | viability, T/C (second compound 0.3 µM, first compound 0.00316 µM) 54.2% | viability, T/C (second compound 0.3 µM, first compound 0.01 µM) 46.5% | viability, T/C (second compound 0.3 µM, first compound 0.0316 µM) 42.2% | viability, T/C (second compound 0.3 µM, first compound 0.1 µM) 37% | viability, T/C (second compound 0.3 µM, first compound 0.316 µM) 31.4% | viability, T/C (second compound 0.3 µM, first compound 1 µM) 17.8%
17.3 nM: IC50 (second compound 0.000949 µM)
6.72 nM: IC50 (second compound 0.3 µM)
31.3 nM: IC50 (second compound 0.03 µM)
41.3 nM: IC50 (second compound 0.00949 µM)
27.1 nM: IC50 (second compound 0.003 µM)
17.8 nM: IC50 (second compound 0.0949 µM)

— PubChem BioAssay AID2060900 (Molecular Pharmacology Branch, DTP, NCI, 2025)
